Measured values from ChEMBL document CHEMBL1201862, “PubChem BioAssay data set” (2004).
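Interpolation was linear, between the two tested concentrations surrounding the appropriate level; five concentrations were tested over 48 hours in 96-well plates. Here, GI50 denotes the concentration required for 50% inhibition of growth.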 Active and inactive are the calls of the source. No stated cut-off is given here; in the data, active = GI50 up to about 1.1 µM and inactive = higher.

Tests used:
Assay in all cases: inhibition of tumour cell growth, NCI panel, 48 h
HOP-92 = test system: HOP-92
OVCAR-4 = test system: OVCAR-4
NCI-H460 = test system: NCI-H460
COLO 205 = test system: COLO 205
SK-MEL-28 = test system: SK-MEL-28
ACHN = test system: ACHN
MDA-MB-435 = test system: MDA-MB-435
T47D = test system: T47D
OVCAR-3 = test system: OVCAR-3
NCI/ADR-RES = test system: NCI/ADR-RES
UACC-257 = test system: UACC-257
SN12C = test system: SN12C
MOLT-4 = test system: MOLT-4
SF-539 = test system: SF-539
HCT-15 = test system: HCT-15
SF-295 = test system: SF-295
IGROV-1 = test system: IGROV-1
SW-620 = test system: SW-620
Hs-578T = test system: Hs-578T
MDA-N = test system: MDA-N
DU-145 = test system: DU-145
HOP-62 = test system: HOP-62
HCT-116 = test system: HCT-116
786-0 = test system: 786-0
RXF 393 = test system: RXF 393
NCI-H23 = test system: NCI-H23
LOX IMVI = test system: LOX IMVI
K562 = test system: K562
UACC-62 = test system: UACC-62
SK-OV-3 = test system: SK-OV-3
OVCAR-5 = test system: OVCAR-5
NCI-H522 = test system: NCI-H522
NCI-H226 = test system: NCI-H226
SF-268 = test system: SF-268
MCF7 = test system: MCF7
HCC 2998 = test system: HCC 2998
UO-31 = test system: UO-31
TK-10 = test system: TK-10
HT-29 = test system: HT-29
SK-MEL-2 = test system: SK-MEL-2
A498 = test system: A498
CAKI-1 = test system: CAKI-1
RPMI-8226 = test system: RPMI-8226
A549 = test system: A549
KM12 = test system: KM12
U-251 = test system: U-251
OVCAR-8 = test system: OVCAR-8
MDA-MB-231 = test system: MDA-MB-231
SNB-75 = test system: SNB-75
M14 = test system: M14
PC-3 = test system: PC-3
HL-60 = test system: HL-60
EKVX = test system: EKVX
SNB-19 = test system: SNB-19
CCRF-CEM = test system: CCRF-CEM
SK-MEL-5 = test system: SK-MEL-5
SR = test system: SR
BT-549 = test system: BT-549
Malme-3M = test system: Malme-3M

Measured: GI50

Cc1ccc(/N=C2/C(c3ccccc3)=C(SC3=C(c4ccccc4)/C(=N/c4ccc(C)cc4)c4ccccc43)c3ccccc32)cc1
inactive: HOP-92 12.1 µM | OVCAR-4 4.09 µM | NCI-H460 8.91 µM | COLO 205 > 100 µM | SK-MEL-28 > 39.7 µM | ACHN 3.38 µM | MDA-MB-435 > 100 µM | T47D 33.3 µM | OVCAR-3 27.5 µM | NCI/ADR-RES 22.1 µM | UACC-257 23.4 µM | SN12C 20.9 µM | MOLT-4 > 87.7 µM | SF-539 6.21 µM | SF-295 12.5 µM | IGROV-1 17.1 µM | SW-620 > 100 µM | Hs-578T 9.98 µM | MDA-N 97.7 µM | DU-145 32.1 µM | HOP-62 10 µM | HCT-116 20.9 µM | 786-0 10.4 µM | RXF 393 12.4 µM | NCI-H23 14 µM | LOX IMVI 67.6 µM | K562 32.4 µM | UACC-62 16.7 µM | SK-OV-3 15 µM | OVCAR-5 39 µM | NCI-H522 34.6 µM | NCI-H226 24.4 µM | SF-268 6.44 µM | MCF7 27.1 µM | HCC 2998 > 37.9 µM | UO-31 15.6 µM | TK-10 31.9 µM | HT-29 24.6 µM | SK-MEL-2 > 39.1 µM | A498 15.2 µM | CAKI-1 15.2 µM | RPMI-8226 84.7 µM | A549 32.9 µM | KM12 39.4 µM | U-251 15.7 µM | OVCAR-8 9.59 µM | MDA-MB-231 12.6 µM | SNB-75 8.63 µM | M14 59.8 µM | PC-3 55 µM | HL-60 7.87 µM | EKVX 19.1 µM | SNB-19 6.31 µM | CCRF-CEM > 100 µM | SK-MEL-5 19.4 µM | SR > 100 µM | BT-549 23.7 µM
17.7 µM: HCT-15

CCOC(=O)N1N(c2ccccc2)C(=O)C1(c1ccccc1)c1ccccc1
> 100 µM: HCT-15
inactive: HOP-92 70.3 µM | OVCAR-4 > 100 µM | COLO 205 80.9 µM | SK-MEL-28 > 100 µM | ACHN > 100 µM | MDA-MB-435 > 100 µM | T47D 18.9 µM | OVCAR-3 40.5 µM | NCI/ADR-RES > 100 µM | UACC-257 > 100 µM | SN12C > 100 µM | MOLT-4 20.1 µM | SF-539 > 100 µM | SF-295 99.1 µM | IGROV-1 > 100 µM | SW-620 > 100 µM | Hs-578T > 100 µM | MDA-N > 100 µM | DU-145 > 100 µM | HOP-62 14.9 µM | HCT-116 17.1 µM | 786-0 > 100 µM | RXF 393 28.8 µM | NCI-H23 > 100 µM | LOX IMVI 70.6 µM | K562 34.8 µM | UACC-62 > 100 µM | SK-OV-3 > 100 µM | OVCAR-5 > 100 µM | Malme-3M 97.7 µM | NCI-H522 44.8 µM | NCI-H226 99.1 µM | SF-268 > 100 µM | MCF7 25.9 µM | HCC 2998 > 100 µM | UO-31 51.6 µM | TK-10 > 100 µM | HT-29 22 µM | SK-MEL-2 20.4 µM | A498 > 100 µM | CAKI-1 > 100 µM | RPMI-8226 14.7 µM | A549 > 100 µM | KM12 73.5 µM | U-251 89.1 µM | OVCAR-8 > 100 µM | MDA-MB-231 > 100 µM | M14 > 100 µM | PC-3 19.2 µM | HL-60 8.3 µM | EKVX 48.1 µM | SNB-19 > 100 µM | CCRF-CEM 66.5 µM | SK-MEL-5 33.8 µM | SR 87.5 µM | BT-549 > 100 µM
